Values joined by “and” are separate entries in the source; they are usually repeats but may differ in a detail not shown here. Equal values may be shown once. Toxic doses and inconclusive results are not listed.
System: L1210 leukemia ip in BDF1 mice, survival T/C
Assay: NCI In Vivo Anticancer Drug Screen. Data for tumor model L1210 Leukemia (intraperitoneal) in B6D2F1 (BDF1) mice
Settings: endpoint: mean survival time, higher = longer survival
Method in brief: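 Transplantable tumor model; survival measured in treated vs vehicle control mice. Value = treated/control.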

[1] = dose: 50.0 mg/kg/injection, schedule: Q01DX009 (ip), vehicle: saline with Tween-80
[2] = dose: 50.0 mg/kg/injection, schedule: Q04DX003 (ip), vehicle: saline with Tween-80
[3] = dose: 100.0 mg/kg/injection, schedule: Q01DX001 (ip), vehicle: saline
[4] = dose: 100.0 mg/kg/injection, schedule: Q01DX009 (ip), vehicle: saline with Tween-80
[5] = dose: 100.0 mg/kg/injection, schedule: Q04DX003 (ip), vehicle: saline with Tween-80
[6] = dose: 200.0 mg/kg/injection, schedule: Q01DX001 (ip), vehicle: saline
[7] = dose: 200.0 mg/kg/injection, schedule: Q01DX009 (ip), vehicle: saline with Tween-80
[8] = dose: 200.0 mg/kg/injection, schedule: Q04DX003 (ip), vehicle: saline with Tween-80
[9] = dose: 400.0 mg/kg/injection, schedule: Q01DX009 (ip), vehicle: saline with Tween-80
[10] = dose: 100.0 mg/kg/injection, schedule: Q01DX009 (ip), vehicle: saline
[11] = dose: 200.0 mg/kg/injection, schedule: Q01DX009 (ip), vehicle: saline
[12] = dose: 400.0 mg/kg/injection, schedule: Q01DX009 (ip), vehicle: saline
[13] = dose: 100.0 mg/kg/injection, schedule: Q01DX009 (ip), vehicle: Klucel (hydroxypropylcellulose) (HPC)
[14] = dose: 200.0 mg/kg/injection, schedule: Q01DX009 (ip), vehicle: Klucel (hydroxypropylcellulose) (HPC)
[15] = dose: 400.0 mg/kg/injection, schedule: Q01DX009 (ip), vehicle: Klucel (hydroxypropylcellulose) (HPC)
[16] = dose: 100.0 mg/kg/injection, schedule: Q04DX002 (ip), vehicle: Klucel (hydroxypropylcellulose) (HPC)

With `Nc1nc(=S)c2ncn(C3OC(COC(=O)c4ccc(Cl)cc4)C(OC(=O)c4ccc(Cl)cc4)C3OC(=O)c3ccc(Cl)cc3)c2[nH]1` (centres undefined) the T/C (dose: 3.5 mg/kg/injection, schedule: Q01DX Z (ip), vehicle: carboxymethylcellulose (CMC)) was 113 % of control, the T/C (dose: 12.0 mg/kg/injection, schedule: Q01DX Z (ip), vehicle: carboxymethylcellulose (CMC)) was 156 % of control and the T/C (dose: 12.0 mg/kg/injection, schedule: Q01DX Z (ip), vehicle: saline) was 170 % of control. For the same compound, the T/C (dose: 19.0 mg/kg/injection, schedule: Q01DX Z (ip), vehicle: carboxymethylcellulose (CMC)) was 115 % of control, the T/C (dose: 44.0 mg/kg/injection, schedule: Q01DX Z (ip), vehicle: carboxymethylcellulose (CMC)) was 150 % of control and the T/C (dose: 50.0 mg/kg/injection, schedule: Q01DX Z (ip), vehicle: saline) was 114 % of control. For the same compound, the T/C (dose: 150.0 mg/kg/injection, schedule: Q01DX Z (ip), vehicle: carboxymethylcellulose (CMC)) was 108 % of control.

`CN(C)Cc1ccncc1` was tested, and the T/C (dose: 50.0 mg/kg/injection, schedule: Q01DX001 (ip), vehicle: saline) was 101 % of control, the T/C [1] was 93 % of control and the T/C [2] was 92 % of control. The T/C [3] was 101 % of control, the T/C [4] was 101 % of control and the T/C [5] was 92 % of control. The T/C [6] was 101 % of control, the T/C [7] was 96 % of control and the T/C [8] was 95 % of control.

In the case of `Cc1cc(C(=O)O)c(C)c2c1sc1ccccc12`, the T/C [3] is reported as 87 % of control and the T/C [6] is reported as 107 % of control.

With `O=C1C(=O)c2cccc3cccc1c23` the T/C (dose: 100.0 mg/kg/injection, schedule: Q01DX001 (ip), vehicle: Klucel (hydroxypropylcellulose) (HPC)) was 88 % of control, the T/C [4] was 90 % of control and the T/C (dose: 200.0 mg/kg/injection, schedule: Q01DX001 (ip), vehicle: Klucel (hydroxypropylcellulose) (HPC)) was 93 % of control. The T/C [7] was 89 % of control, the T/C (dose: 400.0 mg/kg/injection, schedule: Q01DX001 (ip), vehicle: Klucel (hydroxypropylcellulose) (HPC)) was 97 % of control and the T/C [9] was 89 % of control.

`COc1cc(/C=N/NC(=O)c2cccnc2)cc(OC)c1OC` was tested, and the T/C [10] was 102 % of control, the T/C [11] was 107 % of control and the T/C [12] was 103 % of control.

For `O=C([S][Ge]([c]1ccccc1)([c]1ccccc1)[c]1ccccc1)c1ccc([N+](=O)[O-])cc1`, the T/C [13] was 114 % of control and the T/C [14] was 92 % of control.

For `O=C1CCC(c2ccccc2)=NN1c1ccccc1`, the T/C [13] was 96 % of control, the T/C [14] was 90 % of control and the T/C [15] was 96 % of control.

With `CCN=C(N)CSS(=O)(=O)O` the T/C (dose: 25.0 mg/kg/injection, schedule: Q04DX002 (ip), vehicle: Klucel (hydroxypropylcellulose) (HPC)) was 100 % of control, the T/C (dose: 50.0 mg/kg/injection, schedule: Q04DX002 (ip), vehicle: Klucel (hydroxypropylcellulose) (HPC)) was 97 % of control and the T/C [16] was 95 % of control and 110 % of control.

In the case of `O=C(CI)NCc1ccccc1`, the T/C (dose: 75.0 mg/kg/injection, schedule: Q01DX001 (ip), vehicle: saline) is reported as 96 % of control.

`O=C1Nc2ccccc2C1=Nc1ccc(F)cc1` was tested, and the T/C [3] was 96 % of control, the T/C [6] was 92 % of control and the T/C (dose: 400.0 mg/kg/injection, schedule: Q01DX001 (ip), vehicle: saline) was 94 % of control.

`NC(=O)NCCC(=O)O` was tested, and the T/C (dose: 100.0 mg/kg/injection, schedule: Q04DX002 (ip), vehicle: saline) was 115 % of control, the T/C (dose: 200.0 mg/kg/injection, schedule: Q04DX002 (ip), vehicle: saline) was 112 % of control and the T/C (dose: 400.0 mg/kg/injection, schedule: Q04DX002 (ip), vehicle: saline) was 101 % of control.

In the case of `O=C(Cc1ccccc1)Nc1ccc([N+](=O)[O-])cc1Cl`, the T/C (dose: 25.0 mg/kg/injection, schedule: Q01DX009 (ip), vehicle: saline with Tween-80) is reported as 103 % of control, the T/C [1] is reported as 103 % of control and the T/C [4] is reported as 94 % of control and 100 % of control. For the same compound, the T/C (dose: 100.0 mg/kg/injection, schedule: Q04DX002 (ip), vehicle: saline with Tween-80) was 104 % of control, the T/C (dose: 150.0 mg/kg/injection, schedule: Q01DX009 (ip), vehicle: saline with Tween-80) was 92 % of control and the T/C (dose: 200.0 mg/kg/injection, schedule: Q04DX002 (ip), vehicle: saline with Tween-80) was 101 % of control. For the same compound, the T/C (dose: 225.0 mg/kg/injection, schedule: Q01DX009 (ip), vehicle: saline with Tween-80) was 97 % of control, the T/C (dose: 335.0 mg/kg/injection, schedule: Q01DX009 (ip), vehicle: saline with Tween-80) was 103 % of control and the T/C (dose: 400.0 mg/kg/injection, schedule: Q04DX002 (ip), vehicle: saline with Tween-80) was 96 % of control.

With `COc1ccc(N=Nc2cc(C)c(C)cc2O)cc1` the T/C [13] was 96 % of control, the T/C [14] was 103 % of control and the T/C [15] was 94 % of control.

In the case of `Cc1ccc(S(=O)(=O)NN=C2CCC(C(C)(C)C)CC2)cc1` (centres undefined), the T/C [4] is reported as 88 % of control, the T/C (dose: 100.0 mg/kg/injection, schedule: Q04DX003 (ip), vehicle: other) is reported as 91 % of control and the T/C [7] is reported as 88 % of control. The T/C (dose: 200.0 mg/kg/injection, schedule: Q04DX003 (ip), vehicle: other) was 89 % of control, the T/C [9] was 91 % of control and the T/C (dose: 400.0 mg/kg/injection, schedule: Q04DX003 (ip), vehicle: other) was 96 % of control.

In the case of `CC1CCC2(CC1=O)C(C)CC(=O)C2C(C)C` (centres undefined), the T/C [10] is reported as 94 % of control, the T/C [11] is reported as 102 % of control and the T/C [12] is reported as 98 % of control.

With `c1ccc(Sc2ncnc3nc[nH]c23)nc1` the T/C (dose: 267.0 mg/kg/injection, schedule: Q01DX001 (ip), vehicle: saline with Tween-80) was 110 % of control.

With `Cc1ccc(NCC(=O)NN)cc1C` the T/C (dose: 100.0 mg/kg/injection, schedule: Q01DX001 (ip), vehicle: carboxymethylcellulose (CMC)) was 106 % of control, the T/C (dose: 100.0 mg/kg/injection, schedule: Q01DX009 (ip), vehicle: carboxymethylcellulose (CMC)) was 106 % of control and 91 % of control and the T/C [16] was 91 % of control. For the same compound, the T/C (dose: 100.0 mg/kg/injection, schedule: Q04DX002 (ip), vehicle: carboxymethylcellulose (CMC)) was 115 % of control, the T/C (dose: 100.0 mg/kg/injection, schedule: Q04DX003 (ip), vehicle: carboxymethylcellulose (CMC)) was 101 % of control and the T/C (dose: 200.0 mg/kg/injection, schedule: Q01DX001 (ip), vehicle: carboxymethylcellulose (CMC)) was 94 % of control. For the same compound, the T/C (dose: 200.0 mg/kg/injection, schedule: Q01DX009 (ip), vehicle: carboxymethylcellulose (CMC)) was 105 % of control and 109 % of control, the T/C (dose: 200.0 mg/kg/injection, schedule: Q04DX002 (ip), vehicle: Klucel (hydroxypropylcellulose) (HPC)) was 98 % of control and the T/C (dose: 200.0 mg/kg/injection, schedule: Q04DX002 (ip), vehicle: carboxymethylcellulose (CMC)) was 94 % of control. The T/C (dose: 200.0 mg/kg/injection, schedule: Q04DX003 (ip), vehicle: carboxymethylcellulose (CMC)) was 89 % of control, the T/C (dose: 400.0 mg/kg/injection, schedule: Q01DX001 (ip), vehicle: carboxymethylcellulose (CMC)) was 96 % of control and the T/C (dose: 400.0 mg/kg/injection, schedule: Q01DX009 (ip), vehicle: carboxymethylcellulose (CMC)) was 95 % of control and 100 % of control. The T/C (dose: 400.0 mg/kg/injection, schedule: Q04DX002 (ip), vehicle: Klucel (hydroxypropylcellulose) (HPC)) was 113 % of control, the T/C (dose: 400.0 mg/kg/injection, schedule: Q04DX002 (ip), vehicle: carboxymethylcellulose (CMC)) was 97 % of control and the T/C (dose: 400.0 mg/kg/injection, schedule: Q04DX003 (ip), vehicle: carboxymethylcellulose (CMC)) was 101 % of control.

With `O=C(OCCc1ccccc1)Oc1ccccc1` the T/C [10] was 115 % of control, the T/C [11] was 110 % of control and the T/C [12] was 103 % of control.

With `CC(=O)Cn1c(=O)oc2ccccc2c1=O` the T/C [2] was 102 % of control, the T/C [5] was 108 % of control and the T/C [8] was 102 % of control.

`COc1ccc(-c2c(COC(C)=O)c(COC(C)=O)c3n2CCC3)cc1` was tested, and the T/C (dose: 50.0 mg/kg/injection, schedule: Q01DX009 (ip), vehicle: Klucel (hydroxypropylcellulose) (HPC)) was 113 % of control.

With `O=C(O)C(=O)Cc1nnn(-c2ccccc2)c1-c1ccccc1` the T/C (dose: 75.0 mg/kg/injection, schedule: Q01DX001 (ip), vehicle: acetone) was 95 % of control, the T/C (dose: 150.0 mg/kg/injection, schedule: Q01DX001 (ip), vehicle: acetone) was 101 % of control and the T/C (dose: 300.0 mg/kg/injection, schedule: Q01DX001 (ip), vehicle: acetone) was 95 % of control.

From PubChem BioAssay AID248 (DTP/NCI, 2004)
